Test results taken from ChEMBL document CHEMBL3885861, “Open TG-GATES”.

Species: Rattus norvegicus
Experiment: Open TG-GATES - Regimen: Single
Format: toxicity, organism-based, Sprague-Dawley
Parameters: regimen Single, gender Male, age 6 weeks
Conditions: in vivo, po, route gavage; for KIDNEY_L / KIDNEY_R / KIDNEY_TOTAL: tissue Kidney; for LIVER: tissue Liver; for ALP / ALT / CRE / DBIL / GLC / IP / K / Na / RALB / TBIL / TG / TP / gamma-GTP / BUN / PL: tissue Plasma
[1] = 0 mg/kg, 3 h, dose level Control
[2] = 0 mg/kg, 3 h, tissue Blood, dose level Control
[3] = 0 mg/kg, 6 h, dose level Control
[4] = 0 mg/kg, 6 h, tissue Blood, dose level Control
[5] = 0 mg/kg, 9 h, dose level Control
[6] = 0 mg/kg, 9 h, tissue Blood, dose level Control
[7] = 0 mg/kg, 24 h, dose level Control
[8] = 0 mg/kg, 24 h, tissue Blood, dose level Control
[9] = 3 mg/kg, 3 h, tissue Blood, dose level Low
[10] = 3 mg/kg, 6 h, tissue Blood, dose level Low
[11] = 3 mg/kg, 9 h, tissue Blood, dose level Low
[12] = 3 mg/kg, 24 h, tissue Blood, dose level Low

## CNCCC(Oc1ccc(C(F)(F)F)cc1)c1ccccc1.Cl (centres undefined) [FLUOXETINE HYDROCHLORIDE]
[1]
  TERMINAL_BW: 216.5 g
  KIDNEY_L: 0.9 g
  KIDNEY_R: 0.9 g
  KIDNEY_TOTAL: 1.9 g
  LIVER: 10.4 g
  ALP: 1343.2 IU/L
  ALT: 37.8 IU/L
  CRE: 0.4 mg/dL
  DBIL: 0.014 mg/dL
  GLC: 198 mg/dL
  IP: 10.1 mg/dL
  K: 4.9 meq/L
  Na: 138.2 meq/L
  RALB: 4.1 g/dL
  TBIL: 0.056 mg/dL
  TG: 81.8 mg/dL
  TP: 5.7 g/dL
  gamma-GTP: 0.4 IU/L
[2]
  Bas: 0%
  Eos: 1%
  Ht: 41.2%
  Lym: 72.6%
  MCHC: 32.1%
  Ret: 8.8%
  WBC: 83.4 x10_2/uL
[3]
  TERMINAL_BW: 217.6 g
  KIDNEY_L: 1 g
  KIDNEY_R: 1 g
  KIDNEY_TOTAL: 2.1 g
  LIVER: 9.3 g
  ALP: 1497.6 IU/L
  ALT: 35 IU/L
  BUN: 9.2 mg/dL
  CRE: 0.4 mg/dL
  DBIL: 0.008 mg/dL
  GLC: 191 mg/dL
  IP: 9.8 mg/dL
  K: 5 meq/L
  Na: 137.3 meq/L
  PL: 131.2 mg/dL
  RALB: 3.8 g/dL
  TBIL: 0.048 mg/dL
  TG: 45.8 mg/dL
  TP: 5.3 g/dL
  gamma-GTP: 1 IU/L
[4]
  Bas: 0%
  Eos: 1%
  Ht: 41.1%
  Lym: 72%
  MCHC: 32.2%
  Ret: 6.9%
  WBC: 98.6 x10_2/uL
[5]
  TERMINAL_BW: 216.1 g
  KIDNEY_L: 1 g
  KIDNEY_R: 1 g
  KIDNEY_TOTAL: 2 g
  LIVER: 9.2 g
  ALP: 1190.2 IU/L
  ALT: 28.6 IU/L
  CRE: 0.4 mg/dL
  DBIL: 0.01 mg/dL
  GLC: 188.2 mg/dL
  IP: 10.2 mg/dL
  K: 5.1 meq/L
  Na: 139 meq/L
  PL: 139.8 mg/dL
  RALB: 3.8 g/dL
  TBIL: 0.042 mg/dL
  TG: 63 mg/dL
  TP: 5.3 g/dL
  gamma-GTP: 0.4 IU/L
[6]
  Bas: 0%
  Eos: 1%
  Ht: 40.2%
  Lym: 66.4%
  MCHC: 32.5%
  Ret: 8%
  WBC: 106.4 x10_2/uL
[7]
  TERMINAL_BW: 234.5 g
  KIDNEY_L: 1 g
  KIDNEY_R: 1 g
  KIDNEY_TOTAL: 2 g
  ALP: 1409.4 IU/L
  ALT: 36.6 IU/L
  CRE: 0.4 mg/dL
  DBIL: 0.012 mg/dL
  GLC: 194.6 mg/dL
  IP: 8.1 mg/dL
  K: 5.1 meq/L
  Na: 138.3 meq/L
  RALB: 4 g/dL
  TBIL: 0.036 mg/dL
  TG: 133.6 mg/dL
  TP: 5.6 g/dL
  gamma-GTP: 1 IU/L
[8]
  Bas: 0%
  Eos: 1%
  Ht: 39.6%
  Lym: 76.4%
  MCHC: 32.7%
  Ret: 7%
  WBC: 121.8 x10_2/uL
3 mg/kg, 3 h, dose level Low
  TERMINAL_BW: 213 g
  KIDNEY_L: 0.9 g
  KIDNEY_R: 0.9 g
  KIDNEY_TOTAL: 1.8 g
  LIVER: 9.9 g
  ALP: 1490.4 IU/L
  ALT: 36.6 IU/L
  BUN: 11.4 mg/dL
  CRE: 0.4 mg/dL
  DBIL: 0.012 mg/dL
  GLC: 209 mg/dL
  IP: 10 mg/dL
  K: 4.5 meq/L
  Na: 138 meq/L
  RALB: 4.1 g/dL
  TBIL: 0.042 mg/dL
  TG: 85 mg/dL
  TP: 5.8 g/dL
  gamma-GTP: 0.2 IU/L
[9]
  Bas: 0%
  Eos: 1%
  Ht: 41.8%
  Lym: 76.6%
  MCHC: 32.2%
  Ret: 7.7%
  WBC: 94.4 x10_2/uL
3 mg/kg, 6 h, dose level Low
  TERMINAL_BW: 215.1 g
  KIDNEY_L: 0.9 g
  KIDNEY_R: 0.9 g
  KIDNEY_TOTAL: 1.8 g
  LIVER: 9.5 g
  ALP: 1275 IU/L
  ALT: 36.8 IU/L
  BUN: 10.2 mg/dL
  CRE: 0.4 mg/dL
  DBIL: 0.01 mg/dL
  GLC: 196 mg/dL
  IP: 10.3 mg/dL
  K: 4.8 meq/L
  Na: 137.7 meq/L
  RALB: 3.9 g/dL
  TBIL: 0.046 mg/dL
  TG: 100 mg/dL
  TP: 5.4 g/dL
  gamma-GTP: 1 IU/L
[10]
  Bas: 0%
  Eos: 1%
  Ht: 41.2%
  Lym: 67.4%
  MCH: 22 pg
  MCHC: 32.5%
  Ret: 6.8%
  WBC: 80.2 x10_2/uL
3 mg/kg, 9 h, dose level Low
  TERMINAL_BW: 212.9 g
  KIDNEY_L: 0.9 g
  KIDNEY_R: 0.9 g
  KIDNEY_TOTAL: 1.8 g
  LIVER: 9.3 g
  ALP: 1183.8 IU/L
  ALT: 27.6 IU/L
  BUN: 11.2 mg/dL
  CRE: 0.4 mg/dL
  DBIL: 0.01 mg/dL
  GLC: 195.6 mg/dL
  IP: 10.2 mg/dL
  K: 5 meq/L
  Na: 139.1 meq/L
  PL: 136.8 mg/dL
  RALB: 3.9 g/dL
  TBIL: 0.036 mg/dL
  TG: 59.2 mg/dL
  TP: 5.5 g/dL
  gamma-GTP: 0.4 IU/L
[11]
  Bas: 0%
  Eos: 1%
  Ht: 40.1%
  Lym: 69.2%
  MCHC: 32.4%
  Ret: 6.5%
  WBC: 79.8 x10_2/uL
3 mg/kg, 24 h, dose level Low
  TERMINAL_BW: 223.4 g
  KIDNEY_L: 1 g
  KIDNEY_R: 1 g
  KIDNEY_TOTAL: 2 g
  LIVER: 10.5 g
  ALP: 1597.4 IU/L
  ALT: 35.6 IU/L
  BUN: 16.4 mg/dL
  CRE: 0.4 mg/dL
  DBIL: 0.01 mg/dL
  GLC: 194.8 mg/dL
  IP: 8 mg/dL
  K: 4.9 meq/L
  Na: 139.1 meq/L
  RALB: 3.9 g/dL
  TBIL: 0.034 mg/dL
  TG: 124.2 mg/dL
  TP: 5.6 g/dL
  gamma-GTP: 1 IU/L
[12]
  Bas: 0%
  Eos: 1%
  Ht: 40.2%
  Lym: 72%
  MCHC: 32.5%
  Ret: 7.1%
  WBC: 86.8 x10_2/uL
10 mg/kg, 3 h, dose level Middle
  TERMINAL_BW: 225.1 g
